Laboratory results reported in US4716153A, “Stable oral preparation of macrolide antibiotics and method for stabilizing the same” (priority 1982, dated 1987).
Like-named read-outs stand apart in the source and are kept apart here.

What was measured:
[1] = Stability in Japan Pharmacopoeia 1st solution (pH 1.2) at 37° C., with or without stabilizer (TLC densitometry, 232 nm); type: physicochemical; conditions: for improvement of stability compared with control, 30 minutes: value at 30 minutes; for stability in 1st solution (in words): 1st solution pH 1.2, no stabilizer; for stability with tri-sodium citrate (in words): 150-300 mg of tri-sodium citrate; for stability with calcium phosphate (in words): 150-400 mg of calcium phosphate; for stability with glycine (in words): 150-900 mg of glycine; for stability with L-aspartic acid monosodium salt (in words): 200-500 mg of Asp.Na; for stability with monosodium glutamate (in words): 200-500 mg of Glu.Na; for degraded at 0.5 h: read-out: decomposites (balance), 30 minutes; for remaining at 0.5 h: read-out: residual amount after contact with 1st solution, 30 minutes; for degraded at 1 h / remaining at 1 h: 60 minutes; for stability with a larger amount of glycine (in words): larger amount of glycine (up to 900 mg)
Text: The stabilizers showing pH 3-10 used in the invention may be substances having a buffering or antacid action and showing pH 3-10, preferably 5.5-6.5. These are, for example, neutral amino acids or their basic salts, basic salts of acidic amino acids, basic amino acids,basic salts of organic carboxylic acids,basic salts of polybasic organic carboxylic acids, basic salts of uronic acid or inorganic salt antacids. The neutral amino acids or basic salts thereof include glycine, alanine, aminobutyric acid, proline, leucine, isoleucine, methionine, threonine, serine, valine, or their aluminium salts, for example aluminium glycinate. Among these, glycine, alanine and aluminium glycinate, both of which show pH 5.5-6.5, are preferable. The basic salts of acidic amino acid include monobasic salts such as a monosodium, monopotassium or magnesium salt of glutaminic or aspartic acid. Among these monobasic salts, monosodium glutamate or monosodium aspartate is preferable. The basic amino acids include arginine, glutamine, asparagine, citrulin, tryptophane and histidine. Especially, histidine is preferable. The basic salts of monobasic organic carboxylic acid include basic salts such as sodium, potassium, magnesium or aluminium salts of saturated monobasic organic carboxylic acids such as acetic acid and propionic acid, of unsaturated monobasic organic acids such as acrylic acid, crotonic acid and vinylacetic acid, and of other monobasic organic acids such as lactic acid, pyruvic acid, glyceric acid and acetoacetic acid. The basic salts of polybasic organic carboxylic acid include mono-, di- or tri-sodium, potassium, magnesium, calcium or aluminium salts of saturated polybasic organic carboxylic acids such as oxalic acid, malonic acid, succinic acid, glutaric acid, adipic acid and pimelic acid, of unsaturated polybasic organic carboxylic acids such as maleic acid and fumaric acid, and of other polybasic organic carboxylic acids such as meso-oxalic acid, malic acid, oxalacetic acid and citric acid. Among these, trisodium citrate is preferable. The basic salts of uric acids include sodium salts of glucuronic acid, galacturonic acid or their polymers such as alginic acid or peptic acid and dihydroxyaluminium aminoacetate sodium alginate. The inorganic salt antacids include calcium hydrogenphosphate, disodium hydrogenphosphate, dipotassium hydrogenphosphate, magnesium hydrogenphosphate, calcium carbonate, sodium carbonate, potassium carbonate, sodium hydrogen carbonate, aluminium carbonate, magnesium carbonate, potassium metasilicate, magnesium aluminate metasilicate, sodium metasilicate, synthetic aluminium silicate, magnesium silicate, aluminium silicate, magnesium aluminate silicate, magnesium-bismuth aluminate silicate, magnesium oxide, alumina-magnesium hydroxide, magnesium peroxide, magnesium hydroxide, aluminium hydroxide, synthetic hydrotarphite, aluminium phosphate and others. Especially, calcium phosphate and magnesium phosphate are preferable. Each of these stabilizers may be used alone or in the form of a mixture. […] A method for stabilization of 16-membered ring macrolide antibiotics of the present invention will be described in detail. The afore-mentioned various 16-membered ring macrolide antibiotics, for example 9-hydroxy 16-membered ring macrolides such as midecamycin, 3"-propionylleucomycin A5 and josamycin and 9-acyloxy 16-membered ring macrolides such as 9,3"-diacetylmidecamycin and 9-propionyljosamycin show extremely poor residual rates when added to an acidic solution of the Japanese Pharmacopoeia lst liquid (pH 1.2) and allowed to stand. That is, the 9hydroxy 16-membered ring maclorides decompose in a short time to by-produce their iso, demycarosyl and/or isodemycarosyl forms. The 9-acyloxy 16-membered ring macrolides decompose, too, to by-produce their 9-deacyl, 9-deacyl-iso, demycarosyl, 9-deacyl-demycarosyl or 9-deacyl-iso-demycarosyl forms. […]

[2] = Elution rate in aqueous solutions of various pH and physiological saline solution; type: physicochemical; conditions: for elution rate, pH 1.2, 2 and 3: initial pH 1.2, 2 and 3; for elution rate, pH 1.2, 2 and 3 / elution rate, pH 4 and 5 / elution rate, physiological saline solution: 37° C.; for elution rate, pH 4 and 5: initial pH 4 and 5
Protocol: After 40 ml of Japan Pharmacopoeia 1st solution (pH 1.2) was placed in a vessel whose temperature was kept constant in a thermostat at 37° C., 200 mg of TMS-19-Q was added and the mixture was stirred by a magnetic stirrer. […] Then, Japan Pharmacopoeia 2nd solution were mixed with the 1st solution, and by using aqueous solutions whose pH values were adjusted to be 2, 3, 4 and 5 and a physiological saline solution, respectively, elution rate of each thereof was measured.
To 40 ml of Japan Pharmacopoeia 1st solution (pH 1.2), 120 ml of water was added, and after the solution was kept in a constant temperature bath controlled at 37° C., 200 mg of midecamycin was added, and the mixture was stirred by a magnetic stirrer. Then, 5 ml aliquots of the solution were sampled in a lapse of time (at 5 minutes, 15 minutes and 30 minutes), and absorbances were measured (wavelength: 232 nm) and elution rate were calculated. Then, Japan Pharmacopoeia 1st solution and Japan Pharmacopoeia 2nd solution were mixed to prepare aqueous solutions whose pH values were adjusted to be 2, 3, 4 and 5, respectively. By using these solutions and physiological saline solution, the elution rates were calculated following the same procedures as those indicated above.
By following the same procedures and under the same conditions as those of Example 31, elution rates of 9-propionyljosamycin were measured.
By following the same procedures and under the same conditions as those of Example 31, elution rates of josamycin were measured.
In addition to the conditions of Example 31, Japan Pharmacopoeia 1st solution and Japan Parmacopoeia 2nd solution were mixed to prepare an aqueous solution having pH of 2.5, and following the same procedures as those of Example 31, elution rates of 9,3"-diacetylmidecamycin were measured.

[3] = jp 1st solution, 1st solution pH 1.2, 37° C., 30 minutes, no stabilizer
[4] = jp 1st solution, 1st solution pH 1.2, 37° C., no stabilizer, read-out: decomposites (balance), 60 minutes
[5] = jp 1st solution, 1st solution pH 1.2, 37° C., no stabilizer, read-out: residual amount after contact with 1st solution, 60 minutes
[6] = solutions whose pH is equal to or less than 4.37
[7] = 1st solution pH 1.2, 37° C., 30 minutes, no stabilizer
[8] = jp 1st solution, pH 1.2, 1st solution pH 1.2, 37° C., 30 minutes, no stabilizer

improvement of stability compared with control, 30 minutes ([1]; 150 mg of glycine)	stability in 1st solution (in words) [1]	stability with tri-sodium citrate (in words) ([1]; 1st solution)	stability with calcium phosphate (in words) ([1]; 1st solution)	stability with glycine (in words) ([1]; 1st solution)	stability with L-aspartic acid monosodium salt (in words) ([1]; 1st solution)	stability with monosodium glutamate (in words) ([1]; 1st solution)	degraded at 0.5 h [1, 3]	remaining at 0.5 h [1, 3]	degraded at 1 h [1, 4]	remaining at 1 h [1, 5]	stability with a larger amount of glycine (in words) [1]	elution rate in physiological saline solution (summary) ([2]; general description)	elution rate, pH 1.2, 2 and 3 ([2]; after 15-minute stirring)	elution rate, pH 4 and 5 ([2]; after 15-minute stirring)	elution rate in pH 1.2-3 acidic aqueous solution (summary) ([2]; general description)	elution rate in pH 4-5 weak acidic aqueous solution (summary) ([2]; general description)	elution rate, physiological saline solution ([2]; after 15-minute stirring)	time within which elution was nearly completed [2, 6]	Compound	further results
60%	extremely unstable	very much enhanced	extremely enhanced	stabilized well	very much enhanced	very much enhanced	50.6%	49.4%	75.5%	24.5%	hardly decomposed	less than 15%	–	–	–	–	–	–	CCC(=O)OC1CC(=O)OC(C)C/C=C/C=C/C(OC(C)=O)C(C)CC(CC=O)C(OC2OC(C)C(OC3CC(C)(OC(C)=O)C(OC(=O)CC)C(C)O3)C(N(C)C)C2O)C1OC (stereo not drawn) [9,3"-diacetylmidecamycin]	elution rate, pH 1.2, 2 and 2.5 ([2]; initial pH 1.2, 2 and 2.5, after 15-minute stirring): ≥ 95%; elution rate, pH 3 ([2]; initial pH 3, after 15-minute stirring): 50%; elution rate, pH 4 and 5 and physiological saline solution ([2]; initial pH 4 and 5 and physiological saline, after 15-minute stirring): 5-10%; elution rate in pH 1.2-2.5 acidic aqueous solution (summary) ([2]; pH 1.2-2.5, general description): more than 95%; time within which elution was nearly completed ([2]; solutions whose final pH is equal to or less than 3.77): ≤ 15 min
–	extremely unstable	very much enhanced	extremely enhanced	stabilized well	very much enhanced	very much enhanced	55.8%	44.2%	84.1%	15.9%	hardly decomposed	less than 15%	≥ 95%	45-55%	more than 95%	less than 50%	10%	≤ 15 min	CCC(=O)O[C@H]1/C=C/C=C/C[C@@H](C)OC(=O)C[C@@H](OC(C)=O)[C@H](OC)[C@@H](O[C@@H]2O[C@H](C)[C@@H](O[C@H]3C[C@@](C)(O)[C@@H](OC(=O)CC(C)C)[C@H](C)O3)[C@H](N(C)C)[C@H]2O)[C@@H](CC=O)C[C@H]1C [9-propionyljosamycin]	improvement of stability compared with control, 60 minutes ([1]; 150 mg of glycine, value at 60 minutes): improved by four times; degraded at 25 min ([1]; jp 1st solution, pH 1.2, 1st solution, about 25 minutes, read-out: decomposition in contact with 1st solution): 50%
30%	–	–	–	–	–	–	–	–	–	–	–	less than 15%	≥ 95%	50-60%	more than 95%	less than 50%	15%	–	CO[C@@H]1[C@@H](O[C@@H]2O[C@H](C)[C@@H](O[C@H]3C[C@@](C)(O)[C@@H](OC(=O)CC(C)C)[C@H](C)O3)[C@H](N(C)C)[C@H]2O)[C@@H](CC=O)C[C@@H](C)[C@@H](O)/C=C/C=C/C[C@@H](C)OC(=O)C[C@H]1OC(C)=O [josamycin]	degraded at 1 h ([1]; jp 1st solution, pH 1.2, decomposites (balance)): 53.3%; remaining at 1 h ([1]; jp 1st solution, pH 1.2, residual amount after contact with 1st solution): 46.7%; time within which elution was nearly completed ([2]; solutions whose pH is equal to or less than 4.35): ≤ 15 min
50%	extremely unstable	extremely well stabilized	extremely well stabilized	stabilized well	very much enhanced	very much enhanced	–	–	–	–	hardly decomposed	less than 15%	≥ 95%	45-60%	more than 95%	less than 50%	15%	≤ 15 min	CCC(=O)OC1CC(=O)OC(C)C/C=C/C=C/C(O)C(C)CC(CC=O)C(OC2OC(C)C(OC3CC(C)(O)C(OC(=O)CC)C(C)O3)C(N(C)C)C2O)C1OC (stereo not drawn) [midecamycin]	decomposites (balance), 30 minutes [1, 7]: 42.6%; residual amount after contact with 1st solution, 30 minutes [1, 7]: 57.4%; degraded at 0.5 h [1, 8]: 55%; remaining at 0.5 h [1, 8]: 45%; degraded at 1 h ([1]; jp 1st solution, pH 1.2, 1st solution pH 1.2, 37° C., no stabilizer, read-out: decomposites (balance), 60 minutes): 65%; remaining at 1 h ([1]; jp 1st solution, pH 1.2, 1st solution pH 1.2, 37° C., no stabilizer, read-out: residual amount after contact with 1st solution, 60 minutes): 35%
